In the experiment the target is T1, TMPRSS4 serine protease (Homo sapiens, UniProt Q9NRS4).
T1 construct: TMPRSS4 serine protease domain (205th Val˜437th Leu) was cloned in pET21b/NdeI-XhoI; inferred from pET21b XhoI cloning and Ni-NTA purification) (C); made in house; host or cells: E. coli BL21 (DE3)
The experiment in a line: Inhibitory effect on TMPRSS4 serine protease activity using peptide substrate. The format is biochemical. Conditions: kallikrein peptide substrate 100 μM, DMSO negative control; for inhibition at 30 µM: read-out: Intracellular protease activity Inhibition % 30 uM; for inhibition at 10 µM / Intracellular protease activity Inhibition % 10 uM: 10 uM compound; for inhibition at 10 µM: read-out: Intracellular protease activity Inhibition % 10 uM; for inhibition at 100 µM: read-out: Intracellular protease activity Inhibition % 100 uM. The method, then: TMPRSS4 serine protease domain (205th Val˜437th Leu) was cloned in pET21b/NdeI-XhoI, which was introduced in E. coli BL21 (DE3). At this time, FlagX2-enterokinase cleavage site ([…]; total 15 amino acids) was inserted in N-terminal of TMPRSS4 serine protease domain as shown in FIG. 1. The forward and reverse primers for PCR used for the cloning were presented by SEQ. ID. NO: 1 and NO: 2.
The cells were cultured in 10 ml of LB containing ampicillin at 37° C. overnight. IL of LB+ampicillin was added thereto, followed by further culture until OD reached 0.6˜0.8. 0.1 mM IPTG was added thereto, followed by further culture for 16 hours. Cell pellet was obtained, purified by Ni-NTA (Qiagen), and dialyzed. TMPRSS4 serine protease (pro-form) labeled with 2 mg of 2Xflag-enterokinase cleavage site was conjugated to Ni-NTA resin (4°, overnight). Enterokinase (NEB) was treated thereto at the concentration of 0.0002%/w/w at room temperature for 5 hours. The sample was washed, eluted with 50 mM imidazole in 20 mM of sodium phosphate buffer, and then dialyzed.
The protein activity was evaluated by measuring fluorescence shown during hydrolysis of the peptide. […] Reaction was induced after adding 100 μM of the peptide substrate into reaction buffer (50 mM Tris-HCl (pH 8.0), 10 mM CaCl2, 1 μM ZnCl2). Then, fluorescence was measured at 5 minutes interval (excitation 385 nm, emission 455 nm).
Then, fluorescence (excitation 385 nm/emission 455 nm) was measured at 5 minutes interval for 150 minutes. […] Dimethylsulfoxide (DMSO) was used as the negative control.

T1 sequence (Q9NRS4 205-437): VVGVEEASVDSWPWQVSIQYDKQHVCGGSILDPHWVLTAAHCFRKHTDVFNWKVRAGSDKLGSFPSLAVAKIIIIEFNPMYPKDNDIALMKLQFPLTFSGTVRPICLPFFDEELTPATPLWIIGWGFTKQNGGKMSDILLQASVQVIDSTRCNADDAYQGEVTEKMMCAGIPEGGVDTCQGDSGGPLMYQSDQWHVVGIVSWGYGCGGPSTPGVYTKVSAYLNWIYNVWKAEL

In the case of `O=C(Nc1cc(C(F)(F)F)cc(C(F)(F)F)c1)c1cc(Cl)cc(Cl)c1O` [Example 2, N-(3,5-bis(trifluoromethyl)phenyl)3,5-dichloro-2-hydroxybenzamide], the inhibition at 30 µM (30 uM compound) is 100%.
Consider `N#Cc1ccc(O)c(C(=O)Nc2cc(C(F)(F)F)cc(C(F)(F)F)c2)c1` [Example 56, N-(3,5-bis(trifluoromethyl)phenyl)-5-cyano-2-hydroxybenzamide], for which the inhibition at 10 µM was found to be 15%. The inhibition at 30 µM (30 uM compound) was determined as 53%.
The like results for `O=C(Nc1cc(Cl)c(Cl)c(Cl)c1)c1cc(Cl)ccc1O` [Example 66, 5-chloro-2-hydroxy-N-(3,4,5-trichloro-phenyl)benzamide] were, in that order, 6% and 23%.
Regarding `O=C(Nc1ccc(Br)c(C(F)(F)F)c1)c1cc(Cl)ccc1O` [Example 63, N-(4-bromo-3-(trifluoromethyl)phenyl)-5-chloro-2-hydroxybenzamide], the “Intracellular protease activity Inhibition % 10 uM” value was found to be 30%. The “Intracellular protease activity Inhibition % 30 uM” value (30 uM compound) was 46%. Moreover, the “Intracellular protease activity Inhibition % 100 uM” value (100 uM compound) is listed as 98%.
For `O=C(Nc1ncc(C(F)(F)F)cc1Cl)c1cc(Cl)ccc1O` [Example 46, 5-chloro-N-(3-chloro-5-(trifluoromethyl)pyridine-2-yl)-2-hydroxybenzamide], the inhibition at 30 µM (30 uM compound) was found to be 0%. In addition, where the note is “100 uM compound”, the inhibition at 100 µM amounted to 0%.
On to `O=C(Nc1cc(C(F)(F)F)cc(C(F)(F)F)c1Cl)c1cc(Cl)ccc1O` [Example 29, 5-chloro-N-(2-chloro-3,5-bis-trifluoromethyl-phenyl)-2-hydroxy-benzamide], for which the inhibition at 10 µM was found to be 43%. For the same compound, the inhibition at 30 µM (30 uM compound) was found to be 100%.
Take `O=C(Nc1ccc(F)c(C(F)(F)F)c1)c1cc(Cl)ccc1O` [Example 4, 5-chloro-N-(4-fluoro-3-(trifluoromethyl)phenyl)-2-hydroxybenzamide]: the “Intracellular protease activity Inhibition % 10 uM” value is listed as 64% and the inhibition at 10 µM lay within 51 to 100%. Further, the inhibition at 30 µM (30 uM compound) stood at 86%. Besides, the inhibition at 100 µM (100 uM compound) is 98%.
In the case of `O=C(Nc1cc(C(F)(F)F)ccc1C(F)(F)F)c1cc(Cl)ccc1O` [Example 18, N-(2,5-bis(trifluoromethyl)phenyl)-5-chloro-2-hydroxybenzamine], the inhibition at 10 µM worked out at 46%. In addition, for the setting “30 uM compound”, the inhibition at 30 µM stood at 54%.
In the case of `O=C(Nc1cc(C(F)(F)F)cc(C(F)(F)F)c1)c1cc(Br)ccc1O` [Example 9, N-(3,5-bis(trifluoromethyl)phenyl)-5-bromo-2-hydroxybenzamide], the “Intracellular protease activity Inhibition % 10 uM” value was determined as 54% and the inhibition at 10 µM lay in the range of 51 to 100%. For the same compound, the inhibition at 30 µM (30 uM compound) was determined as 84%.
`O=C(Nc1cc(C(F)(F)F)ccc1F)c1cc(Cl)ccc1O` [Example 64, 5-chloro-N-(2-fluoro-5-(trifluoromethyl)phenyl)-2-hydroxybenzamide]: the “Intracellular protease activity Inhibition % 10 uM” value came out at 67%. Moreover, for the setting “100 uM compound”, the inhibition at 100 µM was determined as 100%.
Take `O=C(Nc1c(F)c(F)nc(F)c1F)c1cc(Cl)ccc1O` [Example 43, 5-chloro-2-hydroxy-N-(perfluoropyridine-4-yl)benzamide]: the inhibition at 30 µM (30 uM compound) turned out to be 31%. For the same compound, the inhibition at 100 µM (100 uM compound) was 51%.
As to `O=C(Nc1cc(C(F)(F)F)cc(C(F)(F)F)c1)c1ccc(Cl)cc1O` [Example 54, N-(3,5-bis(trifluoromethyl)phenyl)-4-chloro-2-hydroxybenzamide], the inhibition at 10 µM came out at 29%. In addition, where the note is “30 uM compound”, the inhibition at 30 µM came out at 74%.
Turning to `O=C(Nc1ccc(Cl)cn1)c1cc(Cl)ccc1O` [Example 42, 5-chloro-N-(5-chloropyridine-2-yl)-2-hydroxybenzamide], the inhibition at 30 µM (30 uM compound) was 14%. Moreover, the inhibition at 100 µM (100 uM compound) turned out to be 55%.
For `COc1c(C(F)(F)F)cc(NC(=O)c2cc(Cl)ccc2O)cc1C(F)(F)F` [Example 39, 5-chloro-2-hydroxy-N-(4-methoxy-3,5-bis-trifluoromethyl-phenyl)-benzamide], the “Intracellular protease activity Inhibition % 10 uM” value was determined as 56% and the inhibition at 10 µM lay within 51 to 100%. Moreover, the inhibition at 30 µM (30 uM compound) turned out to be 80%.

Broadly, the inhibition is the relative decrease from the control value, in per cent.

Values taken from US9266872B2, “2-hydroxyarylamide derivative or pharmaceutically acceptable salt thereof, preparation method thereof, and pharmaceutical composition for preventing or treating cancer containing same as active ingredient” (KOREA RESEARCH INSTITUTE OF BIOSCIENCE AND BIOTECHNOLOGY, priority 2011, dated 2016).
